Values quoted from earlier work in patent publication US20040127402A1, “Injectible composition and method for treating degenerative animal joints” (priority 2002, published 2004).

Assays:
[1] = animal studies

Hyaluronic acid
duration of superiority to oral medications (osteoarthritis; in vivo, po): up to six | duration of positive benefits (osteoarthritis; joint lavage prior to hyaluronic acid therapy): up to one | chondroprotective effect [1]: mild chondroprotective effect
